Data as given in patent publication US11331280B2, “Methods for inhibiting conversion of choline to trimethylamine (TMA)” (The Procter & Gamble Company, priority 2018, dated 2022).

Legend:
[1] = system: Proteus mirabilis 29906 (Pm) lysate; assay: Example 10: inhibition of formation of TMA from choline by compounds in Proteus mirabilis lysate; type: biochemical; details: TABLE 10, 50 μM d9-choline chloride, two hours at 37° C., read-out: TMA Inhibition (IC50, mol/L)
Description: This example provides an exemplary assay for identifying and characterizing compounds that inhibit the formation of TMA from choline.
Proteus mirabilis 29906 (Pm) strain was grown aerobically overnight in 500 ml of Nutrient Broth media (3 g/L beef extract, 5 g/L Peptone; Difco #234000) at 37° C. with 250 rpm shaking. The biomass was pelleted by centrifugation at 6000×g for 12 minutes at 4° C. The cell pellet was suspended in 240 mL of ice-cold 1× Phosphate Buffered Saline (Ca^2+ and Mg^2+ free). Ninety micrograms of Lysozyme (Sigma #L6876 Lot #SLBG8654V; Sigma-Aldrich Corp., St. Louis, Mo.) was added and incubated with 320 rpm shaking for 30 minutes at 4° C. Lysis was achieved via French press with a 4° C. prechilled 1″ diameter chamber at 1000 psi (high ratio; internal PSI equivalent ˜16000). The lysate was centrifuged at 6,000×g for 12 minutes at 4° C. to pellet extra debris. A protein concentration of the centrifuged lysate supernatant was determined by a BCA Protein Assay Kit (Pierce #23225; Thermo Fisher Scientific Co., Waltham, Mass.) and protein concentration adjusted to 3 mg/ml with 1× Dulbecco's phosphate buffered saline (DPBS). […]
The plates were again agitated on a plate shaker for 1 minute and incubated at 37° C. for two hours. […] The supernatant was removed and analyzed as described below. […]

[2] = system: human fecal polymicrobial community; assay: Example 11: human fecal polymicrobial incubation with d9-choline, compound screening; type: cell-based; details: TABLE 11, fecal slurry, 50 μM d9-choline chloride, 20 hours, doses 250 μM to 0.238 nM, read-out: TMA Inhibition (IC50, mol/L)
Description: Human fecal polymicrobial incubation with deuterium labeled choline compound screening method, including cell viability assay. All materials were pre-reduced in an anaerobic chamber for 24 hours before using in the experiments and experimental procedures were performed under anaerobic conditions (chamber purged with 85% nitrogen, 5% hydrogen, 10% carbon dioxide).
Human fecal samples were collected from a healthy volunteer with no chronic illnesses, blood borne diseases or active infections. The volunteer had not received antibiotics within two months prior to donation and provided written informed consent. Samples were diluted to make a 20% (w/v) fecal slurry by resuspension of the feces in a media containing 3% (w/v) tryptic soy broth (BBL #211825), 1% (w/v) trehalose (Sigma #T9631), pH 7.3. The fecal slurry was homogenized and filtered by hand using a stomacher bag with an integrated 170 μm membrane. DMSO (5% (w/v)) was added to the filtered slurry and aliquots were stored in cryogenic vials at −80° C. until use. […] After 20 hours, an aliquot of the fecal polymicrobial community was analyzed for viability using PrestoBlue cell viability reagent (Thermo Fisher Scientific, USA) as described below. […] The products were determined by LC/MS/MS and IC50 values were calculated as described previously for detection and analysis of TMA and d9-TMA in EXAMPLE 9. […]

C[S+](C)(=O)CCO [(2-hydroxyethyl) dimethylsulfoxonium chloride]
IC50 [1]: 0.00774 µM
IC50 [2]: 0.0973 µM
